Among the data in US20090221559A1 (priority 2005, published 2009) are EC50 and IC50 values, retold here.

Molecules are shown by their SMILES. Where two headings read alike, the source gives them in different places.

Test [1] relates to HCV replicon RNA replication in Huh-7 luc/neo (Huh-Luc) cells. Briefly: HCV replicon assay (stable replicon cell reporter assay, luciferase read-out). In kind it is cell-based, HCV type 1b. The protocol:
(§1) The compounds of formula (I) were tested for anti-HCV activity in an assay determining their activity against NS5b polymerase and in an HCV replicon assay
The compounds of the present invention were examined for activity in the inhibition of HCV RNA replication in a cellular assay. […] The cellular assay was based on a bicistronic expression construct, as described by Lohmann et al. (1999) Science vol. 285 pp. 110-113 with modifications described by Krieger et al. (2001) Journal of Virology 75: 4614-4624, in a multi-target screening strategy. In essence, the method was as follows.
The assay utilized the stably transfected cell line Huh-7 luc/neo (hereafter referred to as Huh-Luc). This cell line harbored an RNA encoding a bicistronic expression construct comprising the wild type NS3-NS5B regions of HCV type 1b translated from an Internal Ribosome Entry Site (IRES) from encephalomyocarditis virus (EMCV), preceded by a reporter portion (FfL-luciferase), and a selectable marker portion (neo^R, neomycine phosphotransferase). The construct was bordered by 5′ and 3′ NTRs (non-translated regions) from HCV type 1b. Continued culture of the replicon cells in the presence of G418 (neo^R) was dependent on the replication of the HCV RNA. The stably transfected replicon cells that expressed HCV RNA, which replicated autonomously and to high levels, encoding inter alia luciferase, were used for screening the antiviral compounds.
The replicon cells were plated in 384 well plates in the presence of the test and control compounds which were added in various concentrations. Following an incubation of three days, HCV replication was measured by assaying luciferase activity (using standard luciferase assay substrates and reagents and a Perkin Elmer ViewLux™ ultraHTS microplate imager). […] The inhibitory activity of the compound on luciferase activity was monitored on the Huh-Luc cells, enabling a dose-response curve for each test compound.

Test [2] has as its target T1, HCV NS5B polymerase (His-tagged, C-terminal 21 amino acid deleted NS5B, HC-J4) (Hepatitis C virus genotype 1b, UniProt O92972).
T1 construct: The cDNA encoding NS5B amino acid 1-570 (HC-J4, genotype 1b); His tag (His6, from pET-21b) (C); made in house; host or cells: E. coli BL21 (DE3)
Briefly: NS5b polymerase assay (biochemical RdRp assay, 3H-GTP incorporation, SPA beads). Also on record: species or system HCV genotype 1b. As to the method:
as §1
The cDNA encoding NS5B amino acid 1-570 (HC-J4, genotype 1b, pCV-J4L6S, genebank accession number AF054247) was subcloned into the Nhe I and Xho I restriction sites of pET-21b. Expression of the subsequent His-tagged C-terminal 21 amino acid deleted NS5B was performed as follows:
Following transformation in BL21 (DE3) competent cells, bacterial cells were grown in 22 liter LB/Amp media until to reach OD600=0.4-0.6. Protein expression was induced by addition of IPTG 0.4 mM, supplemented with 10 μM MgCl2, and incubated for 14-16 hrs at 20° C. Cells were harvested, resuspended in lysis buffer (20 mM Tris-HCl pH=7.5, 0.3 M NaCl, 10% glycerol, 0.1% NP40, 4 mM MgCl2, 14 mM beta-mercaptoethanol, with tablet of EDTA-free protease cocktail inhibitors) and lysed by sonification. The cell lysate was cleared by high-speed centrifugation (20K×g for 30 min), captured on Ni-NTA beads for 70 min at 4° C., and eluted with 25 mM Hepes pH 7.5, 0.5 M NaCl, 10% glycerol, 14 mM BME, 500 mM imidazole. The eluent was dialysed against 25 mM Hepes pH 7.5, 10% glycerol, 50 mM NaCl, 14 mM BME, after which the protein was further purified by heparin chromatography using the same buffer with 1 M NaCl for elution. Fractions containing pure protein were collected, dialyzed against storage buffer 25 mM Hepes pH=7.5, 300 mM NaCl, 10% glycerol, 14 mM BME), and flash-freezed in liquid nitrogen.
Measurement of HCV NS5B polymerization activity was performed by evaluating the amount of radiolabeled GTP incorporated by the enzyme in a newly synthesized RNA using heteropolymeric RNA template/primer. The highthroughput RdRp assay was carried out in 384-well plates using 200 nM enzyme, 0.1 μCi of ^3H GTP, 5 mM MgCl2, 600 nM GTP, 30 nM PolyC, 300 nM 5′-biotinylated oligo(rG13)/poly(rC) in 20 mM Tris pH 7.5, 21 mM KCl, 2.5 mM DTT, 16.7 mM NaCl and 0.17 mM EDTA. Test compounds were dissolved in dimethylsulfoxide. The test compounds were added to the preformed polymerase-template complex, and incubated at room temperature (RT) for 15 min before the addition of NTPs. The 30-μl reaction was terminated after 2 h at 25° C. upon addition of 30-μl PVT-SPA beads (Amersham Biosciences RPNQ0009, 5 mg/ml in 0.5 M EDTA).

Setting [3] is: Hepatitis C virus, Huh-7, 72 h, read-out: Replicon Assay EC50, Huh-Luc cells, three days incubation, luciferase activity.
[4] abbreviates: NS5B Polymerase Assay IC50, 200 nM enzyme, 3H-GTP incorporation, 2 h at 25° C.
Setting [5] is: read-out: Replicon Assay EC50, Huh-Luc cells, incubation of three days, luciferase activity.
Setting [6] is: read-out: NS5B Polymerase Assay IC50.
[7] abbreviates: Hepatitis C virus, Huh-7, 72 h, read-out: Replicon Assay EC50 (μM), Huh-Luc cells, incubation of three days, luciferase activity.
Where [8] appears, read: NS5B Polymerase Assay IC50 (μM).

T1 sequence (O92972 2417-3000, looked up, stated change not applied): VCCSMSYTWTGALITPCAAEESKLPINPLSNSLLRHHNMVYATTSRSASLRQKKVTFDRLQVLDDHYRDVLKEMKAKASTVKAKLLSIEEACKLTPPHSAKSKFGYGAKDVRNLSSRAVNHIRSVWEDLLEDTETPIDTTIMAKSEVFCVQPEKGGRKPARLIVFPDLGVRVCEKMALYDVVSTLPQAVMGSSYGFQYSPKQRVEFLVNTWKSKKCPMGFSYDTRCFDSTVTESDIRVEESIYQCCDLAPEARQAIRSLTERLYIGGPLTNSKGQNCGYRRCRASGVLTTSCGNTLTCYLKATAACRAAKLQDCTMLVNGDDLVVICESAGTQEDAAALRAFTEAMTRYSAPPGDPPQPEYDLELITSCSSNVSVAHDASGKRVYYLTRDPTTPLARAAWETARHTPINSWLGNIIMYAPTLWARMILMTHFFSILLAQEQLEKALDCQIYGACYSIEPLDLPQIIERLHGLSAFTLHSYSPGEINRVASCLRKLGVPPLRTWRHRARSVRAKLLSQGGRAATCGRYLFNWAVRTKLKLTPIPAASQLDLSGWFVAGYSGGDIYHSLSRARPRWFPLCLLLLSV

On to `CC(=O)N1c2ccccc2NC2=C(C(=O)CC(c3ccccc3OCc3ccccc3)C2)C1c1cccc(OC(=O)c2ccc(Cl)cc2)c1` (single isomer, unassigned) [compound 191, 10-Acetyl-3-(2-benzyloxyphenyl)-11-[3-(4-chlorobenzoyloxy)phenyl]-2,3,4,5,10,11-hexahydro-dibenzo[b,e][1,4]diazepin-1-one], for which the EC50 (commonly the concentration giving half of the maximal effect) in test [1] (setting [3]) is 2.88 µM. Also, in test [2] (setting [4]), the IC50 – broadly, the concentration needed to halve the response being measured – is greater than 42.7 µM.
With `CC(=O)N1c2ccccc2NC2=C(C(=O)CC(c3ccccc3OCc3ccccc3)C2)C1c1cccc(OC(=O)c2ccc(Cl)cc2)c1` (single isomer, unassigned) [compound 192, 10-Acetyl-3-(2-benzyloxyphenyl)-11-[3-(4-chlorobenzoyloxy)phenyl]-2,3,4,5,10,11-hexahydro-dibenzo[b,e][1,4]diazepin-1-one], the EC50 in test [1] (read-out: Replicon Assay EC50, Huh-Luc cells, three days incubation, luciferase activity) was 4.87 µM. For the same compound, in test [2] (read-out: NS5B Polymerase Assay IC50, 200 nM enzyme, 3H-GTP incorporation, 2 h at 25° C.), the IC50 was greater than 42.7 µM.
For the compound `CC(=O)N1c2ccccc2NC2=C(C(=O)CC(C)(C)C2)[C@H]1c1ccc(OCc2ccccc2)cc1` (single isomer, unassigned) [compound 301], the EC50 in test [1] (setting [3]) stood at 15.3 µM. Besides, the midpoint of inhibition in test [2] (setting [4]), the IC50, lay at 1.52 µM.
In the case of `CC(=O)N1c2ccccc2NC2=C(C(=O)CC(C)(C)C2)[C@@H]1c1ccc(OCc2ccccc2)cc1` (single isomer, unassigned) [compound 302], in test [1] (setting [3]), the EC50 was 1.87 µM. Further, the IC50 in test [2] (setting [4]) was found to be 92.5 µM.
As for `CC(=O)N1c2ccccc2NC2=C(C(=O)CC(C)(C)C2)[C@H]1c1ccc(OCc2ccccc2)cc1Cl` (single isomer, unassigned) [compound 305], the EC50 in test [1] (setting [3]) was found to be 7.74 µM. This compound came in with an IC50 in test [2] (setting [4]) of 0.035 µM.
Regarding `CC(=O)N1c2ccccc2NC2=C(C(=O)CC(C)(C)C2)[C@@H]1c1ccc(OCc2ccccc2)cc1Cl` (single isomer, unassigned) [compound 306], the EC50 in test [1] (setting [3]) was 3.92 µM. This compound also returned an IC50 in test [2] (setting [4]) of 83.1 µM.
In the case of `O=C1CC(c2ccccc2OCc2ccccc2)CC2=C1C(c1ccc(Cl)cc1Cl)Nc1ccccc1N2` (single isomer, unassigned) [compound 417, 3-(2-Benzyloxyphenyl)-11-(2,4-dichlorophenyl)-2,3,4,5,10,11-hexahydro-dibenzo[b,e][1,4]diazepin-1-one], the EC50 in test [1] (setting [5]) worked out at 8.33 µM. For the same compound, the IC50 in test [2] (setting [6]) was greater than 42.7 µM.
In the case of `O=C1CC(c2ccccc2OCc2ccccc2)CC2=C1C(c1cccc(OCc3ccccc3)c1)Nc1ccccc1N2` (single isomer, unassigned) [compound 418, 3-(2-Benzyloxyphenyl)-11-(3-benzyloxyphenyl)-2,3,4,5,10,11-hexahydro-dibenzo[b,e][1,4]diazepin-1-one], in test [1] (setting [5]), the EC50 was determined as 2.16 µM. Besides, the IC50 in test [2] (setting [6]) was greater than 42.7 µM.
Consider `O=C1CC(c2ccccc2OCc2ccccc2)CC2=C1C(c1ccc(Cl)cc1Cl)Nc1ccccc1N2` (single isomer, unassigned) [compound 419, 3-(2-Benzyloxyphenyl)-11-(2,4-dichlorophenyl)-2,3,4,5,10,11-hexahydro-dibenzo[b,e][1,4]diazepin-1-one], for which the EC50 in test [1] (setting [7]) stood at 4.82 µM. The compound further registered an IC50 in test [2] (setting [8]) greater than 42.7 µM.
Turning to `O=C1CC(c2ccccc2OCc2ccccc2)CC2=C1C(c1cccc(OCc3ccccc3)c1)Nc1ccccc1N2` (single isomer, unassigned) [compound 420, 3-(2-Benzyloxyphenyl)-11-(3-benzyloxyphenyl)-2,3,4,5,10,11-hexahydro-dibenzo[b,e][1,4]diazepin-1-one], the EC50 in test [1] (setting [7]) is 3.23 µM. In test [2] (setting [8]), this compound displayed an IC50 greater than 42.7 µM.
As for `O=C1C[C@@H](c2ccccc2OCc2ccccc2)CC2=C1C(c1cccc(OC(=O)c3ccc(Cl)cc3)c1)Nc1ccccc1N2` (single isomer, unassigned) [compound 512, 11-[3-(4-Chlorobenzoyloxy)phenyl]-3-(2-benzyloxyphenyl)-2,3,4,5,10,11-hexahydro-dibenzo[b,e][1,4]diazepin-1-one], in test [1] (setting [7]), the EC50 came out at 8.42 µM. In addition, in test [2] (setting [8]), the IC50 was 84.5 µM.
As for `CCCCC(=O)N1c2ccccc2NC2=C(C(=O)CC(C)(C)C2)C1c1ccc(OC)cc1OC` (centres unmarked) [compound 1], in test [1] (setting [3]), the EC50 is 8.53 µM. In test [2] (setting [4]), this compound yielded an IC50 greater than 42.7 µM.
`CCOc1ccc(C2C3=C(CC(C)(C)CC3=O)Nc3ccccc3N2C(=O)C(F)(F)F)cc1` (centres unmarked) [compound 2]: the EC50 in test [1] (setting [3]) worked out at 26.5 µM. The compound further returned an IC50 in test [2] (setting [4]) greater than 42.7 µM.
With `COc1ccc(OC)c(C2C3=C(CC(C)(C)CC3=O)Nc3ccccc3N2C(=O)C(F)(F)F)c1` (centres unmarked) [compound 3], the EC50 in test [1] (setting [3]) was greater than 32 µM. The compound also had an IC50 in test [2] (setting [4]) greater than 42.7 µM.
On the same counts, the results for `CC(=O)N1c2ccccc2NC2=C(C(=O)CC(C)(C)C2)C1c1ccc(F)cc1` (centres unmarked) [compound 4] are greater than 32 µM and greater than 42.7 µM.
Turning to `CC(C)C(=O)N1c2ccccc2NC2=C(C(=O)CC(C)(C)C2)C1c1ccc(C(F)(F)F)cc1` (centres unmarked) [compound 5], the EC50 in test [1] (setting [3]) is 19.9 µM. Moreover, the IC50 in test [2] (setting [4]) was greater than 42.7 µM.
As to `CCCCCC(=O)N1c2ccccc2NC2=C(C(=O)CC(C)(C)C2)C1c1ccccc1OCc1ccccc1` (centres unmarked) [compound 6], the EC50 in test [1] (setting [3]) was 7.32 µM. The same compound displayed an IC50 in test [2] (setting [4]) greater than 42.7 µM.
Take `CCCCC(=O)N1c2ccccc2NC2=C(C(=O)CC(C)(C)C2)C1c1ccc(Cl)cc1` (centres unmarked) [compound 7]: the EC50 in test [1] (setting [3]) came to 8.31 µM. In addition, the IC50 in test [2] (setting [4]) was greater than 42.7 µM.
For `CN(C)c1ccc(C2C3=C(CC(C)(C)CC3=O)Nc3ccccc3N2C(=O)Cc2ccc(Cl)cc2)cc1` (centres unmarked) [compound 8], in test [1] (setting [3]), the EC50 worked out at 5.65 µM. In test [2] (setting [4]), this compound returned an IC50 greater than 42.7 µM.
With `CC(C)CC(=O)N1c2ccccc2NC2=C(C(=O)CC(C)(C)C2)C1c1ccc(Cl)cc1` (centres unmarked) [compound 9], the EC50 in test [1] (setting [3]) turned out to be 3.61 µM. In addition, the IC50 in test [2] (setting [4]) was greater than 42.7 µM.
For `CCCCC(=O)N1c2ccccc2NC2=C(C(=O)CC(C)(C)C2)C1c1ccc(F)cc1` (centres unmarked) [compound 10] the same measures were 19.5 µM and greater than 33.3 µM.
On the same counts, the results for `CCC(=O)N1c2ccccc2NC2=C(C(=O)CC(C)(C)C2)C1c1ccccc1OCc1ccccc1` (centres unmarked) [compound 11] are 14.7 µM and greater than 42.7 µM.
For `COc1ccc(C2C3=C(CC(C)(C)CC3=O)Nc3ccccc3N2C(=O)Cc2ccc(Cl)cc2)cc1` (centres unmarked) [compound 12], in test [1] (setting [3]), the EC50 came to 3.11 µM. This compound also came in with an IC50 in test [2] (setting [4]) greater than 42.7 µM.
In the case of `CC1(C)CC(=O)C2=C(C1)Nc1ccccc1N(C(=O)c1ccccc1)C2c1ccc([N+](=O)[O-])cc1` (centres unmarked) [compound 13], the EC50 in test [1] (setting [3]) was determined as 20.4 µM. Besides, the IC50 in test [2] (setting [4]) was greater than 42.7 µM.
Consider `CCCCOc1ccc(C2C3=C(CC(C)(C)CC3=O)Nc3ccccc3N2C(=O)C(C)C)cc1` (centres unmarked) [compound 14], for which the EC50 in test [1] (setting [3]) came out at 10.6 µM. The compound also showed an IC50 in test [2] (setting [4]) greater than 33.3 µM.
